Each block holds one compound with its values, some of them ahead of it.
Key:
EPO binding to D11 = assay: Binding of EPO to D11 monoclonal antibody after UV-B exposure of the formulation; design: species or system human; conditions: for EPO binding activity to D11 during UV-B exposure: 0.1 mM antioxidant, UV-B up to 24 hours
Experimental: For the examples below involving exposure to UVB radiation, each sample was exposed to UVB light (λ≈302 nm) for varying times, using a UVP 8W model UVLMS-38 lamp at 4° C. The formulations were then analyzed using size exclusion chromatography high pressure liquid chromatography (SEC-HPLC). Aggregation (measured via SEC-HPLC analysis) and binding (measured using CM5 gold sensor chips) were measured to determine the effect of the antioxidant on aggregation and bioactivity of the therapeutic protein. The binding activity of therapeutic protein to a ligand (e.g. to an antibody or binding partner, or, in cases where the therapeutic was an antibody, binding activity to the specific target antigen or to protein A) was determined as follows. […] The therapeutic protein-binding ligand of interest was injected until the desired immobilization level was achieved (above 5000 response units). Three different therapeutic protein-binding ligands were measured—Antibody A's target antigen, Protein A, and D11 (an antibody that binds to erythropoietin). […] The remaining activated groups were blocked with 1.0 M ethanolamine-HCl, pH 8.5. A standard curve was prepared by using native forms of the therapeutic protein of interest. Native forms of the therapeutic protein were diluted in HBS-EP buffer (pH 7.4) to concentrations between 1 and 5 μg/mL, and then injected on the column, prepared as described above to obtain a standard curve. At the end of each sample run, regeneration buffer was used to wash away any bound therapeutic protein in preparation for subsequent injections. Various UV-stressed antibody formulations were also diluted in HBS-EP buffer (pH 7.4) to a concentration within the standard curve region, and injected to quantitate the loss of bioactivity to its respective ligand-binding partner. […] The protein was exposed to the same conditions as Antibody A and Antibody B for up to 24 hours.

Antibody A (IgG1) = assay: SEC-HPLC aggregation of Antibody A (IgG1) after UV-B exposure; assay type: physicochemical; conditions: for UV-B protection of Antibody A (aggregation, SEC-HPLC): Antibody A 1 mg/mL, pH 4.50 (glycolic, lactic acid) or pH 5.00 (citric acid), UV 1 hr
[1] = cited from earlier work
[2] = system: anti-streptavidin (IgG2 antibody); assay: Thermal aggregation of anti-streptavidin at 52° C. for 10 days; assay type: physicochemical; conditions: 5% glycerol; anti-streptavidin, 50 mM sodium acetate pH 5.00; 10 days 52° C.
Experimental: The SEC-HPLC conditions were as follows: a G3000 TOSOH SWXL column was used and the flowrate was set at 0.5 mL/min. […] Anti-streptavidin was formulated in 50 mM sodium acetate at pH 5.00. These formulations were not exposed to UV radiation but assessed on their thermal stability.

Antibody A = assay: Discoloration (yellowing) of Antibody A formulations after UV-B exposure; assay type: physicochemical; conditions: 20 mM and 50 mM pyridoxine; Antibody A 30 mg/mL; UV-B 4 hours
[3] = Color change of the antioxidant upon light; assay type: physicochemical
Source text: P-amino benzoic acid (PABA) has a relatively powerful antioxidant effect.

EPO = assay: SEC-HPLC aggregation/degradation of EPO after UV-B exposure; assay type: physicochemical, human; conditions: 20 mM antioxidant; 1 mg/mL EPO, 25 mM sodium phosphate, 125 mM sodium chloride, pH 6.90; 302 nm UV-B 24 hours
Experimental: For the examples below involving exposure to UVB radiation, each sample was exposed to UVB light (λ≈302 nm) for varying times, using a UVP 8W model UVLMS-38 lamp at 4° C. The formulations were then analyzed using size exclusion chromatography high pressure liquid chromatography (SEC-HPLC). Aggregation (measured via SEC-HPLC analysis) and binding (measured using CM5 gold sensor chips) were measured to determine the effect of the antioxidant on aggregation and bioactivity of the therapeutic protein. The SEC-HPLC conditions were as follows: a G3000 TOSOH SWXL column was used and the flowrate was set at 0.5 mL/min. […] FIG. 4 (EPO), FIG. 5 (anti-streptavidin), and FIG. 6 (Antibody A) show SEC-HPLC chromatograms of each proteins following exposure to 302 nm UV-B light for 24 hours. […] Each formulation was then exposed to 302 nm UV-B light for 24 hours. The protein formulation was then analyzed using SEC-HPLC.

[4] = system: Antibody A binding to protein A; assay: Binding of Antibody A to protein A (CM5 sensor chip) after UV-B exposure of the formulation; conditions: 20 mM antioxidant; pH 5.20 acetate buffer; 302 nm UV light over 24 hours
Experimental: (§1) For the examples below involving exposure to UVB radiation, each sample was exposed to UVB light (λ≈302 nm) for varying times, using a UVP 8W model UVLMS-38 lamp at 4° C. The formulations were then analyzed using size exclusion chromatography high pressure liquid chromatography (SEC-HPLC). Aggregation (measured via SEC-HPLC analysis) and binding (measured using CM5 gold sensor chips) were measured to determine the effect of the antioxidant on aggregation and bioactivity of the therapeutic protein. The binding activity of therapeutic protein to a ligand (e.g. to an antibody or binding partner, or, in cases where the therapeutic was an antibody, binding activity to the specific target antigen or to protein A) was determined as follows. […] The therapeutic protein-binding ligand of interest was injected until the desired immobilization level was achieved (above 5000 response units). Three different therapeutic protein-binding ligands were measured—Antibody A's target antigen, Protein A, and D11 (an antibody that binds to erythropoietin). […] The remaining activated groups were blocked with 1.0 M ethanolamine-HCl, pH 8.5. […] Various UV-stressed antibody formulations were also diluted in HBS-EP buffer (pH 7.4) to a concentration within the standard curve region, and injected to quantitate the loss of bioactivity to its respective ligand-binding partner.

[5] = system: anti-streptavidin mAb (IgG2); assay: SEC-HPLC aggregation of anti-streptavidin (IgG2) after UV-B exposure; assay type: physicochemical; conditions: 20 mM antioxidant; 1 mg/mL anti-streptavidin, 10 mM sodium acetate, 5% sorbitol, pH 5.00; 302 nm UV-B 24 hours
[6] = system: Antibody B binding to protein A; assay: Binding of Antibody B to protein A after UV-B exposure of the formulation; conditions: 20 mM additive; pH 6.90 phosphate buffer; 0-24 hours UV-B
Experimental: For the examples below involving exposure to UVB radiation, each sample was exposed to UVB light (λ≈302 nm) for varying times, using a UVP 8W model UVLMS-38 lamp at 4° C. The formulations were then analyzed using size exclusion chromatography high pressure liquid chromatography (SEC-HPLC). Aggregation (measured via SEC-HPLC analysis) and binding (measured using CM5 gold sensor chips) were measured to determine the effect of the antioxidant on aggregation and bioactivity of the therapeutic protein.
The binding activity of therapeutic protein to a ligand (e.g. to an antibody or binding partner, or, in cases where the therapeutic was an antibody, binding activity to the specific target antigen or to protein A) was determined as follows. […] The therapeutic protein-binding ligand of interest was injected until the desired immobilization level was achieved (above 5000 response units). Three different therapeutic protein-binding ligands were measured—Antibody A's target antigen, Protein A, and D11 (an antibody that binds to erythropoietin). […] The remaining activated groups were blocked with 1.0 M ethanolamine-HCl, pH 8.5.
A standard curve was prepared by using native forms of the therapeutic protein of interest. Native forms of the therapeutic protein were diluted in HBS-EP buffer (pH 7.4) to concentrations between 1 and 5 μg/mL, and then injected on the column, prepared as described above to obtain a standard curve. At the end of each sample run, regeneration buffer was used to wash away any bound therapeutic protein in preparation for subsequent injections.
Various UV-stressed antibody formulations were also diluted in HBS-EP buffer (pH 7.4) to a concentration within the standard curve region, and injected to quantitate the loss of bioactivity to its respective ligand-binding partner.

[7] = system: Antibody A binding to its target antigen; assay: Binding of Antibody A to its target antigen (CM5 sensor chip) after UV-B exposure of the formulation; conditions: 20 mM antioxidant; pH 5.20 acetate buffer; 302 nm UV light over 24 hours
Experimental: as §1

[8] = PABA: doses as high as 12 grams per day; cited from earlier work
[9] = 20 mM benzoic acid derivative, Antibody A 5 mg/mL, 20 mM sodium acetate pH 5.00, UV-B 4° C. 3 hours
[10] = 100 mM, Antibody A 1 mg/mL pH 5.00, UV 3 hours
[11] = 5 mM or 1 mM preservative, Antibody A 1 mg/mL pH 5.00, UV 3 hours

Compound: COc1cc(/C=C/C(=O)O)cc(OC)c1O [sinapic acid]
EPO binding activity to D11 during UV-B exposure (EPO binding to D11): able to protect the EPO from degradation and preserve its binding activity

UV-B protection of Antibody A (aggregation, SEC-HPLC) (Antibody A (IgG1); 100 mM): fairly weak
Compound: O=C(O)CC(O)(CC(=O)O)C(=O)O [citric acid]

Compound: O=C(O)c1ccc(O)cc1 [p-hydroxybenzoic acid]
aggregation of Antibody A (SEC-HPLC) (Antibody A (IgG1); [9]): able to significantly decrease the amount of aggregation

Compound: O=C(O)/C=C/C(=O)O [fumaric acid]
aggregation of Antibody A (SEC-HPLC) (Antibody A (IgG1); [10]): able to protect Antibody A from aggregation

Compound: O=C(O)c1cc(O)c(O)c(O)c1 [gallic acid]
aggregation of Antibody A (SEC-HPLC) (Antibody A (IgG1); [9]): able to significantly decrease the amount of aggregation

EPO binding to D11 after UV (EPO binding to D11; 5 mM sulisobenzone, EPO 40 kU/mL, pH 6.90, UV 0-8 hours at 4° C.): able to protect EPO binding to D11
Compound: COc1cc(O)c(C(=O)c2ccccc2)cc1S(=O)(=O)O [sulisobenzone]

Compound: Cc1cccc(O)c1 [m-cresol]
aggregation of Antibody A (SEC-HPLC) (Antibody A (IgG1); [11]): able to significantly decrease the amount of aggregation

Compound: O=C(O)c1ccc(O)c(O)c1 [protocatechuic acid]
aggregation of Antibody A (SEC-HPLC) (Antibody A (IgG1); [9]): able to significantly decrease the amount of aggregation

Compound: Oc1ccccc1 [phenol]
aggregation of Antibody A (SEC-HPLC) (Antibody A (IgG1); [11]): able to significantly decrease the amount of aggregation

Compound: Oc1cc(O)c2c(c1)O[C@H](c1ccc(O)c(O)c1)[C@H](O)C2 [epicatechin]
solubility [1]: limited solubility

Compound: O=C(O)C1=C[C@@H](O)[C@@H](O)[C@H](O)C1 [shikimic acid]
aggregation of Antibody A (SEC-HPLC) (Antibody A (IgG1); [10]): able to protect Antibody A from aggregation

Compound: O=C(O)/C=C/c1ccc(O)c(O)c1 [caffeic acid]
EPO binding activity to D11 during UV-B exposure (EPO binding to D11): able to protect the EPO from degradation and preserve its binding activity

effect of added glycerol on thermal aggregation caused by ferulic and coumaric acid [2]: counter-acted that thermal aggregation
Compound: OCC(O)CO [glycerol]

appearance of formulation upon exposure to UV radiation (Antibody A): caused the formulation to appear yellow
Compound: Cc1ncc(CO)c(CO)c1O [pyridoxine]
color change upon light [3]: changes to an orange-brown color upon light
solubility [1]: highly soluble
oxidation and aggregation of Antibody A (Antibody A (IgG1); 20 mM and 50 mM pyridoxine, Antibody A 30 mg/mL, UV-B 4 hours): did protect the protein from oxidation and aggregation

Compound: COc1cc(C(=O)O)ccc1O [vanillic acid]
aggregation of Antibody A (SEC-HPLC) (Antibody A (IgG1); [9]): able to significantly decrease the amount of aggregation

EPO activity (binding to D11) after UV-B (EPO binding to D11; 20 mM racemic N-acetyl-tryptophan, 40 kU/mL EPO pH 6.90, UV 0 to 24 hours): preserved
Compound: CC(=O)N[C@@H](Cc1c[nH]c2ccccc12)C(=O)O (racemic) [N-acetyl-tryptophan]
solubility [1]: more soluble than free tryptophan

UV-B protection of Antibody A (aggregation, SEC-HPLC) (Antibody A (IgG1); 100 mM): most effective
Compound: O=C(O)CO [Glycolic acid, glycolic acid]

Compound: catechin
percent binding of EPO to D11 after UV (EPO binding to D11; 20 mM catechin, EPO 40 kU/mL, 25 mM sodium phosphate, 125 mM sodium chloride, 0.005% Tween-80, pH 6.90, UV 0-8 hours): able to preserve EPO binding

Compound: CCCOC(=O)c1cc(O)c(O)c(O)c1 [Propyl gallate, propyl gallate]
aggregation of Antibody A (SEC-HPLC) (Antibody A (IgG1); 10 mM propyl gallate, pH 5.00, UV 3 hours): able to significantly reduce the amount of aggregation

binding of EPO to D11 mAb after UV light exposure (EPO binding to D11; 20 mM antioxidant, up to 24 hours UV): able to significantly preserve
amount of aggregate of EPO (SEC-HPLC) (EPO): dramatically reduced
binding of Antibody A to protein A after UV exposure [4]: preserved
amount of aggregate of anti-streptavidin (SEC-HPLC) [5]: dramatically reduced
binding of Antibody B to protein A after UV-B exposure [6]: prevented UV-B induced degradation
amount of aggregate of Antibody A (SEC-HPLC) (Antibody A (IgG1); 20 mM antioxidant, 1 mg/mL Antibody A, 10 mM sodium acetate, 9% sucrose, pH 5.20, 302 nm UV-B 24 hours): dramatically reduced
binding of Antibody A to its target antigen after UV exposure [7]: preserved
Compound: O=C(/C=C/c1ccc(O)c(O)c1)O[C@@H]1C[C@](O)(C(=O)O)C[C@@H](O)[C@H]1O [chlorogenic acid]

Compound: Cc1ncc(C[n+]2csc(CCO)c2C)c(N)n1 [Thiamine, thiamine]
solubility [1]: more soluble than the cinnamic acids or the benzoic acid derivatives
toxicity in humans [8]: no known toxicity
aggregation of Antibody A (SEC-HPLC) (Antibody A (IgG1); thiamine as low as 5 mM, Antibody A 3 mg/mL, UV-B 4 hours): able to significantly inhibit Antibody A aggregation

Compound: COc1cc(C(=O)O)cc(OC)c1O [syringic acid]
aggregation of Antibody A (SEC-HPLC) (Antibody A (IgG1); [9]): able to significantly decrease the amount of aggregation

aggregation of Antibody A (Antibody A (IgG1); 25 mM cytosine (FIG. 21), Antibody A 1 mg/mL pH 5.00, UV 1, 2, or 3 hours): able to prevent aggregation
Compound: Nc1cc[nH]c(=O)n1 [Cytosine, cytosine]
